Measurements from US6881728B1, “14-β, 17-α-hydroxymethylandrostane derivatives as androgens” (Akzo Nobel N.V., priority 1999, dated 2005).

Biological target: T1, human androgen receptor (Homo sapiens, UniProt P10275)
T1 construct: host or cells: MCF-7 cytosol (endogenous) or CHO cells transfected with hAR
T1 sequence (P10275 1-920): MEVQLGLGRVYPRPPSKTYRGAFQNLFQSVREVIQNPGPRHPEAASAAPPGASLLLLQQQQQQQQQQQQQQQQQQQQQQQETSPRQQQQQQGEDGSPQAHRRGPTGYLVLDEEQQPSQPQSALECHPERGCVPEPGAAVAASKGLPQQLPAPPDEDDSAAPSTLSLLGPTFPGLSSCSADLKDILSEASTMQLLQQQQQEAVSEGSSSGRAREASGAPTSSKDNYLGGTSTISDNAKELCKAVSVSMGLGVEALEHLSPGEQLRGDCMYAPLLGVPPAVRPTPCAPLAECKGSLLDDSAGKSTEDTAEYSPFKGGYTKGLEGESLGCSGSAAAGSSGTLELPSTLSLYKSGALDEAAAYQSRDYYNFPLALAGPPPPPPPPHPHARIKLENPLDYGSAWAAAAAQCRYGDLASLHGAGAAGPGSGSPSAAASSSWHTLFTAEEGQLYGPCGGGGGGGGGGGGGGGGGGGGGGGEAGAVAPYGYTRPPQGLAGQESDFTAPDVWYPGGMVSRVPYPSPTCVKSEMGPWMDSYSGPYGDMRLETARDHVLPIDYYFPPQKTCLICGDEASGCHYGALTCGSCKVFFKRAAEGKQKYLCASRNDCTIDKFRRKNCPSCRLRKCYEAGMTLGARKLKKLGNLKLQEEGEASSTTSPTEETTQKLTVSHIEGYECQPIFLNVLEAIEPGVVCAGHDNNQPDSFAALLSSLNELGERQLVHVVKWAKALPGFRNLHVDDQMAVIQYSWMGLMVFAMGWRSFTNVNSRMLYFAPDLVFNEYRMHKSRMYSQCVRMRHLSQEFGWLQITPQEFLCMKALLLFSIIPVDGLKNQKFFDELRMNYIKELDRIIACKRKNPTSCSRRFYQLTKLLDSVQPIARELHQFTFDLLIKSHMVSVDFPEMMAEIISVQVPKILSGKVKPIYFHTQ
Experiment: androgenic activity rating (procedures described above; which one underlies the rating is not stated)
Set-up: key: +: androgenic activity found; ++: high androgenic activity; +++: excellent androgenic activity
Description: Androgenic activity can be measured in various ways. Thus, the potency of androgens can be determined in vitro using the cytoplasmic androgen receptor from human breast tumor cells (MCF-7 cell line); see Bergink, E. W. et al, Comparison of the receptor binding properties of nandrolone and testosterone under in vitro and in vivo conditions, J. Steroid Biochem. 22, 831-836 (1985). It is also possible to use Chinese hamster ovary (CHO) cells transfected with the human androgen receptor (incubation time 16 h, temperature 4° C.) and compared with the affinity of 5α-dihydrotestosterone [according to the procedure described by Bergink, E. W. et al, J. Steroid Biochem. 12, 1563-1570 (1983)]. The transactivative androgen activity of the compounds of the invention can be measured, e.g. in Chinese hamster ovary cells (CHO) transfected with the human androgen receptor (hAR), in combination with a mouse mammary tumor virus (MMTV), and luciferase […] (incubation time 16 h, temperature 37° C.) and compared with the activity of 5α-dihydrotestosterone [according to the procedure described by Schoonen, W. G. E. J. et al, Analyt. Biochem. 261, 222-224 (1998)]. For the in vivo potency determination of androgens the classical Hershberger test can be used. In this test the androgenic (increase in prostate weight) and anabolic activities [increase of the musculus levator ani (MLA)] of a compound are tested in immature castrated rats after daily administration for 7 days; see Hershberger, L. G. et al, Myotrophic activity of 19-Nortestosterone and other steroids determined by modified levator ani muscle method, Proceedings of the society for experimental biology and medicine 83, 175-180 (1953). Additionally, the effect of an androgenic compound on LH suppression can be tested in mature castrated rats according to Kumar, N. et al, The biological activity of 7alpha-methyl-19-nortestosterone is not amplified in male reproductive tract as is that of testosterone, Endocrinology 130, 3677-3683 (1992).
A plurality of compounds according to the invention were tested for androgenic activity (the procedures for which have been described above) and rated in the Table below according to the following scheme: • + androgenic activity found; • ++ high androgenic activity; • +++ excellent androgenic activity; • nd no data available

SMILES	Rating (androgenic activity)
CC(=O)OC[C@@H]1CC[C@@H]2[C@@H]3CCC4=CC(=O)CC[C@]4(C)[C@H]3CC[C@]12C [Example 22a, (14β,17α)-17-[(Acetyloxy)methyl]androst-4-en-3-one]	+
CC[C@H](O)[C@@H]1CC[C@@H]2[C@@H]3CCC4=CC(=O)CC[C@@H]4[C@H]3CC[C@@]21C [Example 25a]	++
CC(O)C1CCC2C3CCC4=CC(=O)CCC4=C3CCC12C [Example 27a, (14β,17α,20S)-20-Hydroxy-19-norpregna-4,9-dien-3-one]	++
C#C[C@H](O)[C@@H]1CC[C@@H]2[C@H]3[C@H](CC[C@@]21C)[C@H]1CCC(=O)C=C1C[C@H]3C [Example 18c, [7α,14β,17α(R)]-17-(1-Hydroxy-2-propynyl)-7-methylestr-4-en-3-one]	+
C[C@@H]1CC2=CC(=O)CC[C@@H]2[C@H]2CC[C@@]3(C)[C@H](C[C@@H](C)[C@H]3CO)[C@@H]21 [Example 8, (7α,14β,16α,17α)-17-(Hydroxymethyl)-7,16-dimethylestr-4-en-3-one]	+
C[C@@H]1CC2=CC(=O)CC[C@@H]2[C@H]2CC[C@@]3(C)[C@H](CC[C@]3(F)CO)[C@@H]21 [Example 12, (7α,14β,17α)-17-Fluoro-17-(hydroxymethyl)-7-methylestr-4-en-3-one]	+++
CCC1CC2(C)C(C(C)O)CCC2C2CCC3=CC(=O)CCC3C12 [Example 29a, (11β,14β,17α,20S)-11-Ethyl-20-hydroxy-19-norpregn-4-en-3-one]	+
C[C@@H]1CC2=C[C@@H](O)CC[C@@H]2[C@H]2CC[C@]3(C)[C@H](CO)CC[C@@H]3[C@@H]21 [Example 34, (3β,7α,14β,17α)-17-(Hydroxymethyl)-7-methylestr-4-en-3-ol]	++
CC(O)C1CCC2C3C(C)CC4=CC(=O)CCC4C3CCC12C [Example 16a, (7α,14β,17α,20S)-20-Hydroxy-7-methyl-19-norpregn-4-en-3-one]	++
C[C@@H]1CC2=CC(=O)CC[C@@H]2[C@H]2CC[C@]3(C)[C@H](CO)C[C@@H](C)[C@@H]3[C@@H]21 [Example 7, (7α,14β,15β,17α)-17-(Hydroxymethyl)-7,15-dimethylestr-4-en-3-one]	+
CCC12CCC3C4CCC(=O)C=C4CCC3C1CCC2C(C)O [Example 32a, (14β,17α,20S)-13-Ethyl-20-hydroxy-18,19-dinorpregn-4-en-3-one]	+
C[C@]12CC[C@H]3[C@@H](CCC4=CC(=O)CC[C@@H]43)[C@H]1CC[C@H]2CO [Example 1, (14β,17α)-17-(Hydroxymethyl)estr-4-en-3-one]	+++
C[C@@H]1CC2=CC(=O)CC[C@@H]2[C@H]2CC[C@@]3(C)[C@H](C[C@H](C)[C@H]3CO)[C@@H]21 [Example 9, (7α,14β,16β,17α)-17-(Hydroxymethyl)-7,16-dimethylestr-4-en-3-one]	++
CCC(O)[C@@H]1CC[C@@H]2[C@@H]3CCC4=CC(=O)CC[C@@H]4[C@H]3CC[C@@]21C (stereo partly drawn) [Example 25b, [14β,17α(R)]-17-(1-Hydroxypropyl)estr-4-en-3-one]	+
C[C@]12CCC3=C4CCC(=O)C=C4CC[C@H]3[C@H]1CC[C@H]2CO [Example 3, (14β,17α)-17-(Hydroxymethyl)estra-4,9-dien-3-one]	+
C=C[C@@H]1CC2=CC(=O)CC[C@@H]2[C@H]2CC[C@]3(C)[C@H](CO)CC[C@@H]3[C@@H]21 [Example 15, (7α,14β,17α)-7-Ethenyl-17-(hydroxymethyl)estr-4-en-3-one]	++
CC(O)C1CCC2C3C(C)CC4=CC(=O)CCC4C3CCC12C [Example 16b, (7α,14β,17α,20R)-20-Hydroxy-7-methyl-19-norpregn-4-en-3-one]	+

System: not given
Experiment: not given

SMILES	melting point [°C]
CC(=O)OC[C@@H]1CC[C@@H]2[C@@H]3CCC4=CC(=O)CC[C@]4(C)[C@H]3CC[C@]12C [Example 22a, (14β,17α)-17-[(Acetyloxy)methyl]androst-4-en-3-one]	141 to 142
C[C@]12CC[C@H]3[C@@H](CCC4=CC(=O)CC[C@@H]43)[C@H]1CC[C@H]2CO [Example 1, (14β,17α)-17-(Hydroxymethyl)estr-4-en-3-one]	115 to 118
